# Measured values taken from EP0419308A2, “Use of glutamic acid or gum arabic as anti-complement agent” (Chevance, Léon Georges, priority 1989, dated 1991).
# Test system: complément
# Experiment: Anti-complement activity: inhibition of complement in fresh serum (technique of Chevance & Etievant / Rapp & Borsos)
# Type: biochemical
# Conditions: fresh serum diluted 1/40, 37°C, 45 minutes
# From the text: L'activité anti-complément des substances visées par l'invention peut être mise en évidence suivant la technique décrite dans l'article de L-G-CHEVANCE et M. ETIEVANT "Etude d'un peptide (sel de magnésium de l' acide N-Acétyl (α-β)- Aspartyl-glutamique) mise en évidence de la protection contre les destructions cellulaires locales provoquées par l'activation in situ du complément" (J. Pharmacol. Paris 1986 n° 4, 676-685), ainsi que dans la parution de J. RAPP et T. BORSOS "Molecular basis of complement action" Appleton Century Crofts publ. 1970.
# Après titrage du complément, on incube à 37°C pendant 45 minutes des prélèvements aliquots de 40 µl de sérum frais dilué au 1/40e, mélangés chacun respectivement à 40 µl de solutions aqueuses de concentrations croissantes de chaque substance analysée : acide L-glutamique, glutamate de sodium, gomme arabique et d'un mélange, à concentrations égales de gomme arabique et de glutamate de sodium.
SMILES,"% inhibition (Concentration 0,5 %)","% inhibition (Concentration 0,25 %)",% inhibition (Concentration 1 %),"% inhibition (Concentration 0,062 %)","% inhibition (Concentration 0,125 %)","% inhibition (Concentration 0,05 %)","% inhibition (Concentration 1,5 %)",% inhibition (Concentration 2 %)
"N[C@@H](CCC(=O)O)C(=O)O [Glutamate de sodium, L-glutamate de sodium]","0,175%","0,112%","0,216%","0,101%","0,116%",–,–,–
"N[C@@H](CCC(=O)O)C(=O)O [Acide glutamique, acide L-glutamique]","0,092%","0,000%","0,077%",–,–,"0,033%","0,369%","0,661%"
